In patent US11203600B2 (Denali Therapeutics Inc., priority 2017, dated 2021):

The molecules below were run against GST-hRIPK1 (8-327) (Homo sapiens (Human), UniProt Q13546) (assay: Fluorescent Polarization Binding (FP Binding) assay, RIPK1). Conditions: 10 nM GST-hRIPK1 (8-327), 5 nM fluorescent-labeled ligand, RT, 30 min, mean of at least two independent experiments.
Sequence of GST-hRIPK1 (8-327) (Q13546 8-327): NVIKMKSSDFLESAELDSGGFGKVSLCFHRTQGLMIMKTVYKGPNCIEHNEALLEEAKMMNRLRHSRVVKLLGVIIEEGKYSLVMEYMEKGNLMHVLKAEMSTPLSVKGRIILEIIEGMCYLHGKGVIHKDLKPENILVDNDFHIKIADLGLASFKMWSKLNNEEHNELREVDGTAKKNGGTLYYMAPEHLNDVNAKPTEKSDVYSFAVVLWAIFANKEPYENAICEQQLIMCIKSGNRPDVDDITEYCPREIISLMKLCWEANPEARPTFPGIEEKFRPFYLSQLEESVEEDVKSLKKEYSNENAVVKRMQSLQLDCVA
Procedure: Fluorescent Polarization Binding (FP Binding) assay (Berger S. B. et al. (2015) Cell Death Discovery, 1: 15009; Maki J. L. et al. (2012) Anal Biochem., 427(2): 164-174) was performed in polystyrene low volume 384-well black plate, at RT in a final volume of 10.1 μl/well using 10 nM of GST-hRIPK1 (8-327) enzyme and 5 nM of fluorescent-labeled ligand (14-(2-{[3-({2-{[4-(cyanomethyl)phenyl]amino]-6-[(5-cyclopropyl-1H-pyrazol-3-yl)amino]-4-pyrimidinyl}amino) propyl}amino}-2-oxoethyl)-16,16,18,18-tetramethyl-6,7,7a,8a,9,10,16,18-octahydrobenzo [2″,3″]indolizino[8″,7″:5′,6′]pyrano [3′,2′:3,4]pyrido[1,2-a]indo1-5-ium-2-sulfonate.
Test compounds were serially diluted in DMSO at 100 fold final concentrations in the assay (1% DMSO final). In each well of a 384-well Plate were dispensed 0.1 μL of compound solution (or DMSO for controls) followed by 5 μL of GST-hRIPK1 (8-327) at twice the final concentrations in assay buffer (50 mM HEPES pH 7.5, 10 mM NaCl, 50 mM MgCl2, 0.02% CHAPS, 0.5 mM DTT and 0.01% Pluronic F127). For negative control the enzyme addition was replaced by assay buffer only.
After addition of 5 μL of fluorescentlabeled ligand at twice the final concentrations in assay buffer, the plate was incubated at RT for […]. At the end, the binding was measured as FP value with the Envision (PerkinElmer) plate reader using filter for an excitation λ=531 nm FP and an emission λ=595 nm FP (S & P-pol). GST-hRIPK1 (8-327) enzyme was produced via Baculovirus expression.
Test compound inhibition was expressed as percent inhibition of internal assay controls. For concentration response curves, normalized data is fit and IC50 determined using XL-fit (IDBS) for Excel. The IC50 values were averaged to determine a mean value, for a minimum of two independent experiments. Results are shown in Table 2 (RIPK1 IC50) values: +++=0.1 nM<IC50<100 nM; ++=100 nM<IC50<1 μM; +=1 μM<IC50).
`CCC(C)(C)C(=O)N1CCCc2ccccc2C1` [Example 4, 2,2-dimethyl-1-(1,3,4,5-tetrahydro-2-benzazepin-2-yl)butan-1-one] gave an IC50 of 100 to 1000 nM.
With `COC1(C(=O)N2CCOc3c(C#N)cncc3C2)CCN(c2ccc(F)cn2)CC1` [Example 190, 4-[1-(5-fluoro-2-pyridyl)-4-methoxy-piperidine-4-carbonyl]-3,5-dihydro-2H-pyrido[3,4-f][1,4]oxazepine-9-carbonitrile] the IC50 was 100 to 1000 nM.
`N#Cc1cncc2c1OCCN(C(=O)C1(C(F)F)CC1)C2` [Example 139, 4-[1-(difluoromethyl)cyclopropanecarbonyl)-3,5-dihydro-2H-pyrido[3,4-f][1,4]oxazepine-9-carbonitrile] was tested, and the IC50 was over 1000 nM.
`CN(C)CCCOc1nc(N2CCC(F)(C(=O)N3CCOc4c(C#N)cncc4C3)CC2)ncc1F` [Example 127, 4-[1-[4-[3-(dimethylamino)propoxy]-5-fluoro-pyrimidin-2-yl]-4-fluoro-piperidine-4-carbonyl]-3,5-dihydro-2H-pyrido[3,4-f][1,4]oxazepine-9-carbonitrile] gave an IC50 of 100 to 1000 nM.
`N#Cc1cncc2c1OCCN(C(=O)C1(F)CCN(c3ncc(C4CC4)cn3)CC1)C2` [Example 100, 4-[1-(5-cyclopropylpyrimidin-2-yl)-4-fluoro-piperidine-4-carbonyl]-3,5-dihydro-2H-pyrido[3,4-f][1,4]oxazepine-9-carbonitrile] gave an IC50 of 100 to 1000 nM.
In the case of `COc1ccnc(N2CCC(C(=O)N3CCOc4c(C#N)cncc4C3)CC2)n1` [Example 117, 4-[1-(4-methoxypyrimidin-2-yl)piperidine-4-carbonyl]-3,5-dihydro-2H-pyrido[3,4-f][1,4]oxazepine-9-carbonitrile], the IC50 is reported as 0.1 to 100 nM.
In the case of `CC(C)(C(=O)N1CCOc2ncccc2C1)C(F)F` [Example 34, 1-(2,3-dihydropyrido[3,2-f][1,4]oxazepin-4(5H)-yl)-3,3-difluoro-2,2-dimethylpropan-1-one], the IC50 is reported as over 1000 nM.
Work on `C[C@@H]1COc2c(C#N)cncc2CN1C(=O)C1CCN(c2ncc(F)cn2)CC1` [Example 104, (3R)-4-(1-(5-fluoropyrimidin-2-yl)piperidine-4-carbonyl)-3-methyl-2,3,4,5-tetrahydropyrido[3,4-f][1,4]oxazepine-9-carbonitrile] yielded an IC50 of 0.1 to 100 nM.
`N#Cc1cncc2c1OCCN(C(=O)C1(F)CCN(c3nccc4ncnn34)CC1)C2` [Example 166, 4-[4-fluoro-1-([1,2,4]triazolo[1,5-c]pyrimidin-5-yl)piperidine-4-carbonyl]-3,5-dihydro-2H-pyrido[3,4-f][1,4]oxazepine-9-carbonitrile] showed an IC50 of 100 to 1000 nM.
Molecule `CC(C)(C(=O)N1CCOc2cccc(F)c2C1)C(F)F` [Example 20, 3,3-difluoro-1-(6-fluoro-2,3-dihydrobenzo[f][1,4]oxazepin-4(5H)-yl)-2,2-dimethylpropan-1-one] has an IC50 of 0.1 to 100 nM.
Work on `O=C(C1CCN(c2ncc(F)cn2)CC1)N1CCOc2c(F)cncc2C1` [Example 156, (9-fluoro-3,5-dihydro-2H-pyrido[3,4-f][1,4]oxazepin-4-yl)-[1-(5-fluoropyrimidin-2-yl)-4-piperidyl]methanone] yielded an IC50 of 0.1 to 100 nM.
In the case of `COc1nc(N2CCC(F)(C(=O)N3CCOc4c(C#N)cncc4C3)CC2)ncc1F` [Example 191, 4-[4-fluoro-1-(5-fluoro-4-methoxy-pyrimidin-2-yl)piperidine-4-carbonyl]-3,5-dihydro-2H-pyrido[3,4-f][1,4]oxazepine-9-carbonitrile], the IC50 is reported as 0.1 to 100 nM.
`CC(C(=O)N1CCOc2c(C#N)cncc2C1)(C(F)(F)F)C(F)(F)F` [Example 152, 4-[3,3,3-trifluoro-2-methyl-2-(trifluoromethyl)propanoyl]-3,5-dihydro-2H-pyrido[3,4-f][1,4]oxazepine-9-carbonitrile] showed an IC50 of 100 to 1000 nM.
For `N#Cc1cncc2c1OCCN(C(=O)C1(F)CCN(c3ccnc4nccn34)CC1)C2` [Example 180], the IC50 was 100 to 1000 nM.
`N#Cc1cncc2c1OCCN(C(=O)C1CCN(c3nccc(OCC(F)F)n3)CC1)C2` [Example 133, 4-[1-[4-(2,2-difluoroethoxy)pyrimidin-2-yl]piperidine-4-carbonyl]-3,5-dihydro-2H-pyrido[3,4-f][1,4]oxazepine-9-carbonitrile] was tested, and the IC50 was 100 to 1000 nM.
Work on `N#Cc1cncc2c1OCCN(C(=O)C1(F)CCN(c3ccc4nccn4n3)CC1)C2` [Example 109, 4-(4-fluoro-1-imidazo[1,2-b]pyridazin-6-yl-piperidine-4-carbonyl)-3,5-dihydro-2H-pyrido[3,4-f][1,4]oxazepine-9-carbonitrile] yielded an IC50 of 100 to 1000 nM.
`CC(C)(C(=O)N1CCOc2c(cnc(Cl)c2C#N)C1)C(F)F` [Example 59, 8-chloro-4-(3,3-difluoro-2,2-dimethyl-propanoyl)-3,5-dihydro-2H-pyrido[3,4-f][1,4]oxazepine-9-carbonitrile] showed an IC50 of 100 to 1000 nM.
Molecule `CC1(C(=O)N2CCOc3c(C#N)cccc3C2)CCN(c2ncc(F)cn2)CC1` [Example 24, 4-[1-(5-fluoropyrimidin-2-yl)-4-methyl-piperidine-4-carbonyl]-3,5-dihydro-2H-1,4-benzoxazepine-9-carbonitrile] has an IC50 of 0.1 to 100 nM.
Work on `COc1nc(N2CCC(C(=O)N3CCOc4c(C#N)cncc4C3)CC2)ncc1Cl` [Example 129, 4-[1-(5-chloro-4-methoxy-pyrimidin-2-yl)piperidine-4-carbonyl]-3,5-dihydro-2H-pyrido[3,4-f][1,4]oxazepine-9-carbonitrile] yielded an IC50 of 0.1 to 100 nM.
Molecule `CC(C)(C(=O)N1CCOc2c(C#N)cncc2C1)C1(O)CC1` [Example 81, 4-(2-(1-hydroxycyclopropyl)-2-methylpropanoyl)-2,3,4,5-tetrahydropyrido[3,4-f][1,4]oxazepine-9-carbonitrile] has an IC50 of over 1000 nM.

Same assay, conditions: GST-hRIPK1 (8-327), mean of at least two independent experiments
`N#Cc1cncc2c1OCCN(C(=O)C1CCN(c3nccc4ncnn34)CC1(F)F)C2` (stereo not shown) [Example 246, 4-[3,3-difluoro-1-([1,2,4]triazolo[1,5-c]pyrimidin-5-yl)piperidine-4-carbonyl]-3,5-dihydro-2H-pyrido[3,4-f][1,4]oxazepine-9-carbonitrile] showed an IC50 of 100 to 1000 nM.
`O=C(C1CCN(c2ncc(F)cn2)C[C@@H]1F)N1CCOc2ccncc2C1` (stereo partly drawn) [Example 254, 3,5-dihydro-2H-pyrido[3,4-f][1,4]oxazepin-4-yl-[(3,4)-trans-3-fluoro-1-(5-fluoropyrimidin-2-yl)-4-piperidyl]methanone] gave an IC50 of 100 to 1000 nM.
Work on `N#Cc1cncc2c1OCCN(C(=O)C1(F)CCN(c3ncc(F)c(C4CC4)n3)CC1)C2` [Example 201, 4-[1-(4-cyclopropyl-5-fluoro-pyrimidin-2-yl)-4-fluoro-piperidine-4-carbonyl]-3,5-dihydro-2H-pyrido[3,4-f][1,4]oxazepine-9-carbonitrile] yielded an IC50 of 0.1 to 100 nM.
`N#Cc1cncc2c1OCCN(C(=O)C1(F)CCN(c3ccnc4ncnn34)CC1)C2` [Example 212, 4-[4-fluoro-1-([1,2,4]triazolo[1,5-a]pyrimidin-7-yl)piperidine-4-carbonyl]-3,5-dihydro-2H-pyrido[3,4-f][1,4]oxazepine-9-carbonitrile] showed an IC50 of 100 to 1000 nM.
`CC(C)(C(=O)N1CCOc2c(C#N)cncc2C1)[C@H]1C[C@@H](Cn2ccnn2)C1` [Example 293, cis-4-[2-methyl-2-[3-(triazol-1-ylmethyl)cyclobutyl]propanoyl]-3,5-dihydro-2H-pyrido [3,4-f][1,4]oxazepine-9-carbonitrile] gave an IC50 of over 1000 nM.
